{"source": "patent US20020137929A1", "about": "“1 - (3-heterocyclylphenyl) isothiourea, -isourea, -guanidine and -amidine herbicidal agents” (Intellectual Property Department, BASF Aktiengesellschaft, priority 1998, published 2002)", "key": {"CASOB (Sicklepod)": {"system": "CASOB (Sicklepod)", "experiment": "Postemergence herbicidal evaluation", "type": "in vivo, Cassia obtusifolia", "conditions": "postemergence", "in_short": "(§1)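 Visual 0–9 rating versus control (stand, vigor, malformation, size, chlorosis, overall appearance), taken four to five weeks post-spray. Two-week-old seedlings received roughly 0.0156–0.500 kg/ha active in acetone/water (50/50) with 0.5% TWEEN 20 via nozzle at 40 psi.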"}, "GALAP (Galium)": {"system": "GALAP (Galium)", "experiment": "Postemergence herbicidal evaluation", "type": "in vivo, Galium aparine", "conditions": "postemergence", "in_short": "as §1"}, "ZEAMX (Corn, Field) [1]": {"system": "ZEAMX (Corn, Field)", "experiment": "Postemergence herbicidal evaluation", "type": "in vivo, Zea mays", "conditions": "postemergence", "in_short": "as §1"}, "AMBEL (Ragweed, Common)": {"system": "AMBEL (Ragweed, Common)", "experiment": "Preemergence herbicidal evaluation", "type": "in vivo, Ambrosia artemisifolia", "conditions": "rated 4-5 weeks after treatment, rating scale 0-9", "in_short": "(§2)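 Scores use a 0–9 visual scale covering stand, vigor, malformation, size and chlorosis relative to controls, rated four to five weeks after treatment. Before emergence, soil-planted seeds were sprayed with compound in aqueous acetone at roughly 0.0156–0.500 kg/ha and held in the greenhouse.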"}, "[2]": {"system": "CHEAL (Lambsquarters, Common)", "experiment": "Preemergence herbicidal evaluation", "type": "in vivo, Chenopodium album", "conditions": "rated 4-5 weeks after treatment, rating scale 0-9", "in_short": "as §2"}, "[3]": {"system": "IPOHE (Morningglory, Ivyleaf)", "experiment": "Preemergence herbicidal evaluation", "type": "in vivo, Ipomoea hederacea", "conditions": "rated 4-5 weeks after treatment, rating scale 0-9", "in_short": "as §2"}, "ORYSAT (Rice, Tebonnet)": {"system": "ORYSAT (Rice, Tebonnet)", "experiment": "Preemergence herbicidal evaluation", "type": "in vivo, Oryza sativa, (L.) Tebonnet", "conditions": "rated 4-5 weeks after treatment, rating scale 0-9", "in_short": "as §2"}, "[4]": {"system": "TRZAWR (Wheat, Winter, cv Riband)", "experiment": "Preemergence herbicidal evaluation", "type": "in vivo, Triticum aestivum", "conditions": "rated 4-5 weeks after treatment, rating scale 0-9", "in_short": "as §2"}, "ZEAMX (Corn, Field) [5]": {"system": "ZEAMX (Corn, Field)", "experiment": "Preemergence herbicidal evaluation", "type": "in vivo, Zea mays", "conditions": "rated 4-5 weeks after treatment, rating scale 0-9", "in_short": "as §2"}, "[6]": {"system": "ECHORC (Watergrass (Calif.))", "experiment": "Preemergence weed control under flooded paddy conditions", "type": "in vivo, Echinochloa oryzoides", "conditions": "rated 3-4 weeks after treatment", "in_short": "(§3)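 Ratings on a 0-9 visual scale cover stand, vigor, malformation, size, chlorosis and overall appearance relative to a control, taken three to four weeks post-treatment. Application was into flood water over freshly sown silt loam at roughly 0.0313 to 0.500 kg/ha.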"}, "CYPIR (Rice Flatsedge)": {"system": "CYPIR (Rice Flatsedge)", "experiment": "Preemergence weed control under flooded paddy conditions", "type": "in vivo, Cyperus iria", "conditions": "rated 3-4 weeks after treatment", "in_short": "as §3"}, "CYPSE (Flatsedge)": {"system": "CYPSE (Flatsedge)", "experiment": "Preemergence weed control under flooded paddy conditions", "type": "in vivo, Cyperus serotinus", "conditions": "rated 3-4 weeks after treatment", "in_short": "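Visual injury scored 0-9 against control three to four weeks post-treatment, greenhouse-grown. Application: acetone/water (50/50) solutions dosed directly into flood water (1.5-3 cm over silt loam, planted top 0.5 cm), roughly 0.0313 to 0.500 kg/ha active ingredient.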"}}}
{"smiles": "Cn1c(C(F)(F)F)cc(=O)n(-c2cc(N=C3SCC(=O)N3Cc3ccc(F)cc3)c(Cl)cc2F)c1=O", "note": "[Compound 151, 3-{4-Chloro-2-fluoro-5-{[3-(p-fluorobenzyl)-4-oxo-2-thiazolidinylidene]amino}phenyl}-1-methyl-6-(trifluoromethyl)-2,4(1H,3H)-pyrimidinedione]", "values": [{"measurement": "Herbicidal rating CASOB", "setting": "CASOB (Sicklepod); rate 0.0156 kg/ha", "result": 2.0}, {"measurement": "Herbicidal rating CASOB", "setting": "CASOB (Sicklepod); rate 0.0313 kg/ha", "result": 4.0}, {"measurement": "Herbicidal rating CASOB", "setting": "CASOB (Sicklepod); rate 0.0625 kg/ha", "result": 4.0}, {"measurement": "Herbicidal rating GALAP", "setting": "GALAP (Galium); rate 0.0156 kg/ha", "result": 4.0}, {"measurement": "Herbicidal rating GALAP", "setting": "GALAP (Galium); rate 0.0313 kg/ha", "result": 4.0}, {"measurement": "Herbicidal rating GALAP", "setting": "GALAP (Galium); rate 0.0625 kg/ha", "result": 6.0}, {"measurement": "Herbicidal rating ZEAMX", "setting": "ZEAMX (Corn, Field) [1]; rate 0.0156 kg/ha", "result": 4.0}, {"measurement": "Herbicidal rating ZEAMX", "setting": "ZEAMX (Corn, Field) [1]; rate 0.0313 kg/ha", "result": 4.5}, {"measurement": "Herbicidal rating ZEAMX", "setting": "ZEAMX (Corn, Field) [1]; rate 0.0625 kg/ha", "result": 5.0}, {"measurement": "Preemergence herbicidal rating AMBEL", "setting": "AMBEL (Ragweed, Common); rate 0.0156 kg/ha", "result": 1.0}, {"measurement": "Preemergence herbicidal rating AMBEL", "setting": "AMBEL (Ragweed, Common); rate 0.0313 kg/ha", "result": 7.0}, {"measurement": "Preemergence herbicidal rating AMBEL", "setting": "AMBEL (Ragweed, Common); rate 0.0625 kg/ha", "result": 9.0}, {"measurement": "Preemergence herbicidal rating AMBEL", "setting": "AMBEL (Ragweed, Common); rate 0.1250 kg/ha", "result": 9.0}, {"measurement": "Preemergence herbicidal rating AMBEL", "setting": "AMBEL (Ragweed, Common); rate 0.2500 kg/ha", "result": 9.0}, {"measurement": "Preemergence herbicidal rating CHEAL", "setting": "[2]; rate 0.0156 kg/ha", "result": 9.0}, {"measurement": "Preemergence herbicidal rating CHEAL", "setting": "[2]; rate 0.0313 kg/ha", "result": 9.0}, {"measurement": "Preemergence herbicidal rating CHEAL", "setting": "[2]; rate 0.0625 kg/ha", "result": 9.0}, {"measurement": "Preemergence herbicidal rating CHEAL", "setting": "[2]; rate 0.1250 kg/ha", "result": 9.0}, {"measurement": "Preemergence herbicidal rating CHEAL", "setting": "[2]; rate 0.2500 kg/ha", "result": 9.0}, {"measurement": "Preemergence herbicidal rating IPOHE", "setting": "[3]; rate 0.0156 kg/ha", "result": 4.0}, {"measurement": "Preemergence herbicidal rating IPOHE", "setting": "[3]; rate 0.0313 kg/ha", "result": 9.0}, {"measurement": "Preemergence herbicidal rating IPOHE", "setting": "[3]; rate 0.0625 kg/ha", "result": 9.0}, {"measurement": "Preemergence herbicidal rating IPOHE", "setting": "[3]; rate 0.1250 kg/ha", "result": 9.0}, {"measurement": "Preemergence herbicidal rating IPOHE", "setting": "[3]; rate 0.2500 kg/ha", "result": 9.0}, {"measurement": "Preemergence herbicidal rating ORYSAT", "setting": "ORYSAT (Rice, Tebonnet); rate 0.0156 kg/ha", "result": 2.0}, {"measurement": "Preemergence herbicidal rating ORYSAT", "setting": "ORYSAT (Rice, Tebonnet); rate 0.0313 kg/ha", "result": 5.0}, {"measurement": "Preemergence herbicidal rating ORYSAT", "setting": "ORYSAT (Rice, Tebonnet); rate 0.0625 kg/ha", "result": 5.0}, {"measurement": "Preemergence herbicidal rating ORYSAT", "setting": "ORYSAT (Rice, Tebonnet); rate 0.1250 kg/ha", "result": 9.0}, {"measurement": "Preemergence herbicidal rating ORYSAT", "setting": "ORYSAT (Rice, Tebonnet); rate 0.2500 kg/ha", "result": 9.0}, {"measurement": "Preemergence herbicidal rating TRZAWR", "setting": "[4]; rate 0.0156 kg/ha", "result": 2.0}, {"measurement": "Preemergence herbicidal rating TRZAWR", "setting": "[4]; rate 0.0313 kg/ha", "result": 6.0}, {"measurement": "Preemergence herbicidal rating TRZAWR", "setting": "[4]; rate 0.0625 kg/ha", "result": 5.0}, {"measurement": "Preemergence herbicidal rating TRZAWR", "setting": "[4]; rate 0.1250 kg/ha", "result": 8.0}, {"measurement": "Preemergence herbicidal rating TRZAWR", "setting": "[4]; rate 0.2500 kg/ha", "result": 9.0}, {"measurement": "Preemergence herbicidal rating ZEAMX", "setting": "ZEAMX (Corn, Field) [5]; rate 0.0156 kg/ha", "result": 7.0}, {"measurement": "Preemergence herbicidal rating ZEAMX", "setting": "ZEAMX (Corn, Field) [5]; rate 0.0313 kg/ha", "result": 7.0}, {"measurement": "Preemergence herbicidal rating ZEAMX", "setting": "ZEAMX (Corn, Field) [5]; rate 0.0625 kg/ha", "result": 7.0}, {"measurement": "Preemergence herbicidal rating ZEAMX", "setting": "ZEAMX (Corn, Field) [5]; rate 0.1250 kg/ha", "result": 9.0}, {"measurement": "Preemergence herbicidal rating ZEAMX", "setting": "ZEAMX (Corn, Field) [5]; rate 0.2500 kg/ha", "result": 9.0}, {"measurement": "herbicidal effect rating, ECHORC", "setting": "[6]; 0.0313 kg/ha", "result": 3.0}, {"measurement": "herbicidal effect rating, ECHORC", "setting": "[6]; 0.0625 kg/ha", "result": 5.0}, {"measurement": "herbicidal effect rating, ECHORC", "setting": "[6]; 0.1250 kg/ha", "result": 9.0}, {"measurement": "herbicidal effect rating, ECHORC", "setting": "[6]; 0.2500 kg/ha", "result": 9.0}, {"measurement": "herbicidal effect rating, CYPIR", "setting": "CYPIR (Rice Flatsedge); 0.0313 kg/ha", "result": 0.0}, {"measurement": "herbicidal effect rating, CYPIR", "setting": "CYPIR (Rice Flatsedge); 0.0625 kg/ha", "result": 2.0}, {"measurement": "herbicidal effect rating, CYPIR", "setting": "CYPIR (Rice Flatsedge); 0.1250 kg/ha", "result": 6.0}, {"measurement": "herbicidal effect rating, CYPIR", "setting": "CYPIR (Rice Flatsedge); 0.2500 kg/ha", "result": 8.0}, {"measurement": "herbicidal effect rating, CYPSE", "setting": "CYPSE (Flatsedge); 0.0625 kg/ha", "result": 7.0}, {"measurement": "herbicidal effect rating, CYPSE", "setting": "CYPSE (Flatsedge); 0.2500 kg/ha", "result": 7.0}]}
